Data reported in the Deep4Chem optical property database.
Values belong to the molecule of their own block, whether it stands above or below them.

Test: solvent given as SMILES

absorption maximum (in ClCCl): 331 nm
Compound: Cc1c(C)c(-c2ccc(-c3cccnc3)cc2)c(C)c(C)c1B(c1c(C)c(C)c(-c2ccc(-c3cccnc3)cc2)c(C)c1C)c1c(C)c(C)c(-c2ccc(-c3cccnc3)cc2)c(C)c1C

absorption maximum (in C1COCCO1): 384 nm
Compound: O=C1NC(c2ccccc2)=N/C1=C\c1ccccc1

absorption maximum (in ClCCl): 341 nm
Compound: COC(=O)C1=C(C(=O)OC)[Se](=O)[C@]23C1=C[C@H](c1ccccc12)c1ccccc13 (stereo not given in full)

Compound: Cc1ccc2c(c1)c1cc(C)ccc1n2-c1cccc(-n2c3ccc(C)cc3c3cc(C)ccc32)c1C#N
absorption maximum (in Cc1ccccc1): 368 nm

Compound: CC(C)(C)c1ccc2c(c1)c1cc(C(C)(C)C)ccc1n2-c1ccc(C#Cc2cccc(C#Cc3ccc(-n4c5ccc(C(C)(C)C)cc5c5cc(C(C)(C)C)ccc54)cc3)c2)cc1
absorption maximum (in CC#N): 340 nm
absorption maximum (in CCCCC): 340 nm
absorption maximum (in CO): 338 nm
absorption maximum (in Cc1ccccc1): 345 nm
absorption maximum (in ClC(Cl)Cl): 344 nm
absorption maximum (in ClCCl): 345 nm

absorption maximum (in ClC(Cl)Cl): 412 nm
Compound: c1cc2ccc3sc4ccc5cccc6c(c1)c2c3c4c56

Compound: FC(F)(F)c1cc2n(n1)[B-]1(c3ccccc3-c3ccccc31)[n+]1ccc3ccccc3c1-2
absorption maximum (in C1CCCCC1): 373 nm
absorption maximum (in Cc1ccccc1): 375 nm
absorption maximum (in ClCCl): 373 nm

Compound: CCCCCCCCCCCCC(CCCCCCCCCC)Cn1c2cc(/C=C/C=C/c3nc4ccccc4s3)c3cccc4c5cccc6c(/C=C/C=C/c7nc8ccccc8s7)cc1c(c65)c2c34 (stereo not given)
absorption maximum (in C1CCCCC1): 530 nm
absorption maximum (in CC#N): 528 nm
absorption maximum (in Cc1ccccc1): 538 nm
absorption maximum (in ClCCl): 538 nm

absorption maximum (in CS(C)=O): 400 nm
Compound: Cc1cccn2c1cc1c3ccccc3nc(-c3ccco3)c12

absorption maximum (in ClCCl): 686 nm
Compound: COc1c2ccccc2c(OC)c2c(C#C[Si](C(C)C)(C(C)C)C(C)C)c3cc4ccccc4cc3c(C#C[Si](C(C)C)(C(C)C)C(C)C)c12

absorption maximum (in ClC(Cl)Cl): 645 nm
Compound: CCCCCCCCN1C(=O)c2ccc3c4c(-c5ccc(N(c6ccccc6)c6ccccc6)cc5)cc5c6c(ccc(c7c(-c8ccc(N(c9ccccc9)c9ccccc9)cc8)cc(c2c37)C1=O)c64)C(=O)N(CCCCCCCC)C5=O

absorption maximum (in C1CCOC1): 784 nm
absorption maximum (in ClCCl): 795 nm
Compound: CCC(CC)COC1=CC2=C3c4cc(OCC(CC)CC)c(-c5cccs5)n4[B-](F)(F)[n+]4nnn(c43)[B-](F)(F)[N+]2=C1c1cccs1

absorption maximum (in ClCCl): 419 nm
Compound: O=C1c2cc3ccccc3cc2C2=Nc3ccc4ccccc4[n+]3[B-](F)(F)N12

absorption maximum (in C1CCOC1): 830 nm
Compound: C1=C2c3cc4ccccc4cc3C3=[N+]2[B-]2(Oc4ccccc43)Oc3ccccc3-c3c4cc5ccccc5cc4c1n32 (stereo not given)

absorption maximum (in ClCCl): 683 nm
Compound: F[B-]1(F)n2c(-c3ccccc3)cc(-c3cccs3)c2N=C2C(c3cccs3)=CC(c3ccccc3)=[N+]21

absorption maximum (in C1CCCCC1): 295 nm
Compound: CC(C)(C)[Si](C)(C)c1cccc2ccccc12

Compound: O=C1c2ccc(N(c3ccccc3)c3ccccc3)cc2C(=O)c2ccc(N(c3ccccc3)c3ccccc3)cc21
absorption maximum (in Cc1ccccc1): 449 nm

absorption maximum (in C1CCOC1): 295 nm
Compound: Cc1ccc(-c2ccc(-c3ccc(-c4ccc(C)cc4)cc3/C(=C(/c3ccccc3)c3cc(-c4ccc(C)cc4)ccc3-c3ccc(-c4ccc(C)cc4)cc3)c3ccccc3)cc2)cc1

absorption maximum (in ClCCl): 794 nm
Compound: CN(C)c1ccc(C2=[N+]3C(=Nc4c5ccccc5c(-c5ccc(N(C)C)cc5)n4[B-]3(F)F)c3ccccc32)cc1

absorption maximum (in ClCCl): 339 nm
Compound: c1ccc(C2=C(c3ccccn3)[Si](c3ccccc3)(c3ccccc3)c3ccccc32)cc1

Compound: CCC1(CC)c2cc(C=C(C#N)C#N)ccc2-c2ccc(N(C)C)cc21
absorption maximum (in C1CCCCC1): 480 nm
absorption maximum (in CC#N): 474 nm
absorption maximum (in CCO): 478 nm
absorption maximum (in CCOCC): 470 nm
absorption maximum (in CS(C)=O): 490 nm
absorption maximum (in ClCCl): 490 nm
absorption maximum (in c1ccccc1): 480 nm

Compound: COc1ccc(C2=CC3=C(c4c(C)cc(C)cc4C)c4cc(-c5ccc(OC)cc5)c(-c5ccc(OC)cc5)n4[B-](F)(F)[N+]3=C2c2ccc(OC)cc2)cc1
absorption maximum (in C1CCCCC1): 621 nm
absorption maximum (in C1CCOC1): 621 nm
absorption maximum (in CC#N): 608 nm
absorption maximum (in Cc1ccccc1): 625 nm
absorption maximum (in ClCCl): 616 nm

absorption maximum (in ClC(Cl)Cl): 485 nm
Compound: CCCCCCCCCCCCOc1cc2c3cc(OCCCCCCCCCCCC)c(OCCCCCCCCCCCC)cc3c3c(cc(OCCCCCCCCCCCC)c4nc5cc(C#Cc6ccc(OCCCC)cc6)c(C#Cc6ccc(OCCCC)cc6)cc5nc43)c2cc1OCCCCCCCCCCCC

absorption maximum (in C1CCCCC1): 393 nm
absorption maximum (in CO): 397 nm
absorption maximum (in CS(C)=O): 397 nm
absorption maximum (in ClC(Cl)Cl): 396 nm
absorption maximum (in c1ccccc1): 395 nm
Compound: CCCCCCCC1=C(C)C(=O)n2c1cc1[nH]c(C(=O)OC)c(C)c1c2=O

Compound: CN(C)c1ccc2c(c1)C(=O)NC2=O
absorption maximum (in C1CCOC1): 377 nm
absorption maximum (in C1COCCO1): 378 nm
absorption maximum (in CC#N): 388 nm
absorption maximum (in CC(C)(C)O): 387 nm
absorption maximum (in CC(C)=O): 382 nm
absorption maximum (in CC(C)O): 389 nm
absorption maximum (in CCOCC): 371 nm
absorption maximum (in CO): 396 nm
absorption maximum (in O): 408 nm

absorption maximum (in C1CCOC1): 336 nm
Compound: CCC1(CC)c2cc(Br)ccc2-c2c1c1c(c3c2C(CC)(CC)c2cc(-c4cccs4)ccc2-3)C(CC)(CC)c2cc(Br)ccc2-1

Compound: C[C@]12C(=O)NC(=O)N([C@H]3CC(O)[C@@H](CO)O3)[C@H]1[C@H]1Oc3cc4oc(=O)ccc4cc3[C@H]12 (stereo not given in full)
absorption maximum (in CC(C)O): 327 nm
absorption maximum (in CCO): 327 nm
absorption maximum (in CCOCC): 325 nm
absorption maximum (in CO): 328 nm
absorption maximum (in O): 329 nm

absorption maximum (in CN(C)C=O): 343 nm
Compound: Fc1cc(-c2ccc(-c3nc4ccccc4[nH]3)cc2)ccc1-c1ccc(-c2nc3ccccc3[nH]2)cc1

absorption maximum (in ClCCl): 331 nm
Compound: CC(C)(C)NC(=O)c1ccc(-c2ccc(N3c4ccccc4Oc4ccccc43)cc2)c2ccc3c4ccc(F)cc4c4cc(F)ccc4c3c12

Compound: Cc1ccccc1C
absorption maximum (in C1CCCCC1): 258.26 nm

absorption maximum (in C1CCCCC1): 331 nm
Compound: c1ccc(-c2c3c(cc4c2-c2ccccc2C4)-c2ccccc2C3)cc1

absorption maximum (in ClC(Cl)Cl): 303 nm
Compound: COc1ccc(-c2nc(-c3ccc(C)cc3)c3ccccn23)cc1

absorption maximum (in ClC(Cl)Cl): 434 nm
Compound: Cc1cccc(C2=Cc3c4ccccc4c4ccccc4[n+]3[B-](F)(F)O2)c1

absorption maximum (in C1CCCCC1): 582 nm
absorption maximum (in CCOC(C)=O): 577 nm
Compound: CC1=[N+]2C(=C(Oc3ccccc3)c3ccc(C)n3[B-]2(F)F)C=C1c1cc2n(c1)[B-](F)(F)[N+]1=CC=CC1=C2c1c(C)cc(C)cc1C

Compound: CCN(CC)c1ccc2cc(-c3ccc(S(C)(=O)=O)cc3)oc(=O)c2c1
absorption maximum (in CC(C)=O): 375 nm
absorption maximum (in CCCCCC): 373 nm
absorption maximum (in CCCCO): 378 nm
absorption maximum (in CCCO): 378 nm
absorption maximum (in CCO): 376 nm
absorption maximum (in CCOC(C)=O): 374 nm
absorption maximum (in CN(C)C=O): 379 nm
absorption maximum (in CO): 376 nm
absorption maximum (in ClC(Cl)Cl): 383 nm

absorption maximum (in ClC(Cl)Cl): 556 nm
Compound: F[B-]1(F)n2cccc2C(c2ccccc2)=C2C=CC(c3cccc(OC4=[N+]5C(=C(c6ccccc6)c6cc(Br)c(Br)n6[B-]5(F)F)C=C4Br)c3)=[N+]21

absorption maximum (in C1CCCCC1): 344 nm
absorption maximum (in C1CCOC1): 348 nm
absorption maximum (in C1COCCO1): 347 nm
absorption maximum (in CC#N): 340 nm
absorption maximum (in CC(C)(C)O): 350 nm
absorption maximum (in CC(C)O): 347 nm
absorption maximum (in CCCCCC): 342 nm
absorption maximum (in CCCCO): 349 nm
absorption maximum (in CCO): 346 nm
absorption maximum (in CCOC(C)=O): 346 nm
absorption maximum (in CN(C)C=O): 351 nm
absorption maximum (in CO): 346 nm
absorption maximum (in CS(C)=O): 352 nm
absorption maximum (in ClC(Cl)Cl): 343 nm
absorption maximum (in ClCCl): 341 nm
absorption maximum (in O): 354 nm
absorption maximum (in OCCO): 346 nm
Compound: CCc1ccc(/C=N/c2cc(C(C)C)c(O)cc2C)cc1

absorption maximum (in C1CCOC1): 513 nm
Compound: CC(C)(C)[Si](C)(C)C#CC1=CC2=c3cc(C#C[Si](C)(C)C(C)(C)C)c4nc(C(F)(F)C(F)(F)C(F)(F)F)nc5c(C#C[Si](C)(C)C(C)(C)C)cc(c3c54)C3=CC(C#C[Si](C)(C)C(C)(C)C)=C4N=C(C(F)(F)C(F)(F)C(F)(F)F)N=C1C4C32 (stereo not given)

Compound: COc1cccc2oc(-c3cc4c(OC)cccc4oc3=O)cc12
absorption maximum (in CC#N): 383 nm
absorption maximum (in CCOC(C)=O): 385 nm
absorption maximum (in CS(C)=O): 389 nm
absorption maximum (in Cc1ccccc1): 389 nm
absorption maximum (in O): 384 nm

absorption maximum (in ClC(Cl)Cl): 606 nm
Compound: CN1C(=CC2=C([O-])C(=Cc3oc(-c4ccc(-c5ccccc5)cc4)c[n+]3C)C2=O)C(C)(C)c2ccccc21

absorption maximum (in C1CCOC1): 351 nm
Compound: CCCCOc1cc2ccccc2c2c1oc1cc3ccccc3cc12

absorption maximum (in CC#N): 359 nm
absorption maximum (in CC(C)O): 360 nm
absorption maximum (in CCO): 359 nm
absorption maximum (in CO): 361 nm
absorption maximum (in ClC(Cl)Cl): 362 nm
absorption maximum (in ClCCl): 362 nm
Compound: Cc1cccc2cc3c(=O)n(C)c(=O)n(C)c3nc12

absorption maximum (in ClC(Cl)Cl): 384 nm
Compound: O=C1[C@@H]2[C@H](C(=O)N1c1cccc3cc4ccccc4cc13)[C@@H]1C=C[C@H]2C1

absorption maximum (in CS(C)=O): 491 nm
absorption maximum (in O): 564 nm
Compound: CC1(C)C(/C=C/C=C/c2cc3ccc(O)cc3oc2=O)=[N+](CCCS(=O)(=O)[O-])c2ccccc21

absorption maximum (in CO): 444 nm
Compound: COc1ccc(/C=C/c2cc[n+]3ccc(/C=C/c4ccc(OC)cc4)cc3c2)cc1

Compound: CCC1=C(C)C2=Cc3c4ccccc4c4n3[B-](c3ccc5ccc6cccc7ccc3c5c67)(Oc3ccccc3-4)[N+]2=C1C (stereo not given)
absorption maximum (in CC#N): 622 nm
absorption maximum (in CCCCCC): 627 nm
absorption maximum (in Cc1ccccc1): 630 nm
absorption maximum (in ClCCl): 628 nm

Compound: CC(C)(C)c1ccc2c(c1)c1cc(C(C)(C)C)ccc1n2-c1ccc(S(=O)(=O)c2cccc(S(=O)(=O)c3ccc(-n4c5ccc(C(C)(C)C)cc5c5cc(C(C)(C)C)ccc54)cc3)c2)cc1
absorption maximum (in Cc1ccccc1): 348 nm

absorption maximum (in ClCCl): 525 nm
Compound: CC1CC(C)(C)N(C)c2ccc(/C=C/c3ccc(/C=C(\C#N)C(=O)O)s3)cc21 (stereo not given)

absorption maximum (in ClC(Cl)Cl): 416 nm
Compound: C(#Cc1ccccc1)C(C#Cc1ccccc1)=Cc1ccc(C=C(C#Cc2ccccc2)C#Cc2ccccc2)cc1

absorption maximum (in ClC(Cl)Cl): 689 nm
Compound: CCCCCCCCCCOc1cc(OCCCCCCCCCC)cc(C2=C3C(/C=C/c4ccc(OC)cc4)=CC(/C=C/c4ccc(OC)cc4)=[N+]3[B-](F)(F)n3c(/C=C/c4ccc(OC)cc4)cc(C=Cc4ccc(OC)cc4)c32)c1
